Experimental data reported in patent publication US20070066616A1, “Inhibitors for extracellular signal-regulated kinase docking domains and uses therefor” (priority 2005, published 2007).
Entries after “also recorded” stand apart in the source; their conditions may differ.

Experiments:
[1] = tested on: ERK-mediated phosphorylation of Rsk-1 on Thr573; experiment: ERK-mediated Rsk-1 phosphorylation (Thr573), immunoblot and densitometry in EGF-stimulated HeLa cells; assay type: cell-based, human; details: immunoblot
Method: Prior to harvesting, cells were pre-incubated with the test compounds for 15-20 minutes and then stimulated with EGF or anisomycin to activate the ERK or p38 MAP kinase pathways, respectively. Control and treated cells were washed twice with cold phosphate buffered saline (PBS, pH 7.2; Invitrogen) and proteins were collected following cell lysis with 300 μl of cold tissue lysis buffer (20 mM Tris, pH 7.4, 137 mM NaCl, 2 mM EDTA, 1% Triton X-100, 0.1% SDS, 25 mM β-glycerophosphate, 2 mM sodium pyrophosphate, 10% glycerol, 1 mM sodium orthovanadate, 1 mM phenylmethylsulfonyl fluoride (PMSF), 1 mM benzamidine), allowed to incubate on ice for about 10 minutes and then centrifuged at 20,000 (X g) to clarify the lysates of insoluble material. The lysates then were diluted with an equal volume of 2X SDS-sample buffer and the proteins were separated on SDS-PAGE for immunoblot analysis. Immunoblot analysis was done as previously described (41-43).
All compounds were subjected to assays of ERK specific phosphorylation of Rsk-1 and/or Elk-1 as examined by immunoblot analysis using phosphorylation specific antibodies. In FIG. 5A HeLa cells were cultured in 24 well plates and pretreated for 20-30 minutes with […] of the selected test compounds. The cells were stimulated with epidermal growth factor (EGF, 50 ng/ml) for 5 minutes to activate the ERK pathway. Cell lysates were collected and immunoblotted for ERK-mediated phosphorylation of Rsk-1 on Thr573. As shown, EGF treatment alone caused a robust increase in Thr573 phosphorylation on Rsk-1 in the absence of test compounds. The presence of test compounds had inhibitory effects on ERK-mediated Rsk-1 phosphorylation.
Compounds 86-98 were first tested for inhibition of ERK mediated phosphorylation of the transcription factor Elk-1, which is an important regulator of cell proliferation. Cells were treated with EGF to activate the ERK pathway and phosphorylation of Elk-1 on the ERK site at S383 was detected by immunoblot analysis (FIG. 5C). […] The effects of the test compounds were also tested with Rsk-1, another ERK substrate involved in regulating cell proliferation.

[2] = tested on: ERK-mediated phosphorylation of Elk-1 on S383; experiment: ERK-mediated Elk-1 phosphorylation (Ser383), immunoblot in EGF-stimulated HeLa cells; assay type: cell-based, human
Method: Prior to harvesting, cells were pre-incubated with the test compounds for 15-20 minutes and then stimulated with EGF or anisomycin to activate the ERK or p38 MAP kinase pathways, respectively. […] The lysates then were diluted with an equal volume of 2X SDS-sample buffer and the proteins were separated on SDS-PAGE for immunoblot analysis. Immunoblot analysis was done as previously described (41-43).
Cells were treated with EGF to activate the ERK pathway and phosphorylation of Elk-1 on the ERK site at S383 was detected by immunoblot analysis (FIG. 5C). […] The effects of the test compounds were also tested with Rsk-1, another ERK substrate involved in regulating cell proliferation.

ERK2 = biological target: T1, ERK2 (Mus musculus, UniProt P63085); experiment: Fluorescence titration (quenching of intrinsic ERK2 fluorescence); assay type: binding
T1 construct: (His)x6; made in house; host or cells: bacteria
Method: (§1) Experiments measure the changes in the intrinsic ERK2 fluorescence due to the presence of aromatic amino acids, with the indole group of tryptophan being the major fluorophore with absorption and emission maxima around 280 and 340 nanometers (nm), respectively. Fluorescence spectra were recorded with a Luminescence Spectrometer LS50 (Perkin Elmer, Boston, Mass.). For all experiments, ERK2 protein was diluted into 20 mM Tris-HCl, pH 7.5. Titrations were performed by increasing the test compound concentration while maintaining the ERK2 protein concentration at 3 μM.
The excitation wavelength was 295 nm and fluorescence was monitored from 300 to 500 nm. All reported fluorescence intensities are relative values and are not corrected for wavelength variations in detector response. Dissociation constants, KD, were determined using reciprocal plots, 1/ν vs 1/[I], where ν represents the percent occupied sites calculated assuming fluorescence quenching to be directly proportion to the percentage of occupied binding sites, [I] represents the concentration of the inhibitor compound and the slope of the curve equals the KD (48-49).
ERK2 contains three tryptophans, which have intrinsic fluorescence. Fluorescence quenching of ERK2 by the test compounds is indicative of binding interactions and potential protein conformational changes.

ERK2 D316N = biological target: T2, ERK2 D316N (Mus musculus, UniProt P63085, D316N); experiment: Fluorescence titration with ERK2 point mutant D316N (CD domain); assay type: binding; details: fluorescence quenching
T2 construct: (His)x6; made in house; host or cells: bacteria (as described for ERK2 in general; not repeated for the mutant)
Method: as §1, with “Direct binding interactions between ERK2 and the biologically active compounds is determined using fluorescence spectroscopy (47). Experiments” for “Experiments”
Unphosphorylated and phosphorylated ERK2 typically are incubated with […] of the biologically active compounds and the fluorescence intensity is measured. If necessary, higher inhibitor concentrations are used to saturate fluorescence quenching. The excitation wavelength was 295 nm and fluorescence was monitored from 300 to 500 nm. All reported fluorescence intensities are relative values and are not corrected for wavelength variations in detector response. […] Because the test compounds contain aromatic structures, the emission spectra of the active compounds in the absence of ERK2 is be determined. […]

T1 sequence (P63085 whole entry): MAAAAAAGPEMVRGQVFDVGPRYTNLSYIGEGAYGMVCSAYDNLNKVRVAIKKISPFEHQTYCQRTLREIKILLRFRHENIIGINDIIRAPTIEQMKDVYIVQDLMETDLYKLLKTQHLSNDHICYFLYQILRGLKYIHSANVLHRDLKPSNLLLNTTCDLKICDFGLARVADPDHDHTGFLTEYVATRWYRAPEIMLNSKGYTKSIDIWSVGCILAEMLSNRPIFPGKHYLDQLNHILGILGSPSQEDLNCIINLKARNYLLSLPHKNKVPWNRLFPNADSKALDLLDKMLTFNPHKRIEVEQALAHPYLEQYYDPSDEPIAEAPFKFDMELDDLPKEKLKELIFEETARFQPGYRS
T2 sequence (P63085 whole entry D316N, the tested form may be a part): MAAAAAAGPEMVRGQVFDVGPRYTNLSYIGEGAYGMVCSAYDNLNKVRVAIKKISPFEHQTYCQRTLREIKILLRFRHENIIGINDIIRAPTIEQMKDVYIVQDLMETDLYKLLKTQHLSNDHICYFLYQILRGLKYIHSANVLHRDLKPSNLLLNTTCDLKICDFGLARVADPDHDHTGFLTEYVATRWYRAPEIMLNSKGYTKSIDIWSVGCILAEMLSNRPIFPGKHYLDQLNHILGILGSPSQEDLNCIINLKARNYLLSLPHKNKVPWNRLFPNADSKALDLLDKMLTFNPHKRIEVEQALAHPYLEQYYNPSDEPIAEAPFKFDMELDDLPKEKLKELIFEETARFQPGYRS

y-intercept of reciprocal plot (indicating a single binding site) (ERK2; 1/ν vs 1/[I] plot): 1.8 | reduction in binding affinity compared to wild type ERK2 (ERK2 D316N): approximately 5 fold
Structure (SMILES): CCOc1ccc(C=C2SC(=O)N(CCN)C2=O)cc1 [Compound 76]
effect on ERK-mediated Rsk-1 phosphorylation (in words) [1]: highest inhibition | effect on ERK-mediated Elk-1 phosphorylation (in words) [2]: inhibited | ERK2 fluorescence quenching / binding (in words) (ERK2; fluorescence titration): strong quenching; also recorded: bind to directly ERK2
